System: HIV-infected subjects
Experiment: Safety and tolerability (TEAEs, ECG, laboratory) after repeated oral administration, phase 2a study
Assay type: in vivo, human
Experimental: Participants were assigned to one of eight groups; each group (with one exception) included eight subjects receiving either ABX464 (n = 6) or the corresponding placebo (n = 2) according to a randomization code. […] In the present study with HIV-infected subjects, the first dose administered was 25 mg, given once or 3 times a day over a 2- to 3-week period. This initial dose was therefore considered safe for assessment of the safety and tolerability of ABX464 after repeated oral administrations in subjects infected by HIV and determination of the potential effect on the HIV viral load.
The final dosing protocol for each of the eight groups was as follows: group 1, 25 mg every 3 days for 2 to 3 weeks under fasted conditions; group 2, 25 mg once a day (q.d.) for 2 to 3 weeks under fasted conditions; group 3, 50 mg once a day for 2 to 3 weeks under fasted conditions; group 4, 50 mg 3 times a day (t.i.d.) for 4 weeks under fed conditions; group 5, 75 mg once a day for 2 weeks under fed conditions; group 6, 100 mg once a day for 2 to 3 weeks under fasted conditions; group 7, 150 mg every 3 days for 2 to 3 weeks under fed conditions; and group 8, 150 mg once a day for 2 weeks under fed conditions. Per the study protocol, the treatment period was defined as 2 weeks. […] The decision to proceed to the next highest dose was determined by the data and safety monitoring board after review of the laboratory safety data, vital signs, ECGs, and adverse event reports from the group receiving the current dose after 2 weeks of treatment.
Subjects were hospitalized from the day prior to the first dose to at least the morning of day 2. They were orally dosed with 25-mg capsules of ABX464 with 240 ml water under fed or fasted conditions. According to the group, subjects were dosed with 1, 2, 3, 4, or 6 capsules to deliver 25 mg, 50 mg, 75 mg, 100 mg, or 150 mg product, respectively, or the same number of placebo capsules.
Safety assessments and laboratory tests were carried out according to the schedules described in Table S4 for groups dosed every day, every 3 days, and 3 times a day. Follow-up visits were scheduled for 7 days after the last dose and subsequently once every week in order to assess the elimination of the main ABX464 metabolite and to assess the viral load. Follow-up visits were terminated when the virus load was within 0.5 log of the baseline value or after 3 follow-up visits, whichever came first. Prior to the statistical analyses, AEs were coded using the Medical Dictionary for Regulatory Activities (MedDRA dictionary; last available version) in order to be tabulated by system organ class (SOC) and preferred term (PT). The AEs were analyzed according to the treatment emergence phase from the first study drug administration on day 1 up to 48 h after the last study drug administration. The number and percentage of subjects with at least one TEAE were tabulated by SOC and PT for each group and dose. The number of occurrences of TEAEs was also analyzed in the same way by SOC and PT for each group and dose, by grade of severity for each group and dose, and by level of causality to the study drug for each group and dose.

[1] = Group 5 (n = 6), 75 mg q.d., fed, Mild
[2] = Group 5 (n = 6), 75 mg q.d., fed, Moderate
[3] = Group 6 (n = 6), 100 mg q.d., fasted, Mild
[4] = Group 6 (n = 6), 100 mg q.d., fasted, Moderate
[5] = Group 7 (n = 6), 150 mg every 3 days, fed, Mild

FC(F)(F)Oc1ccc(Nc2ccc3cccc(Cl)c3n2)cc1 [ABX464]
0 (0.0) No. (%): Subjects experiencing at least one TEAE: Arthralgia [1] | Subjects experiencing at least one TEAE: Back pain [1] | Subjects experiencing at least one TEAE: Flank pain [1] | Subjects experiencing at least one TEAE: Injury, poisoning, and procedural complications [1] | Subjects experiencing at least one TEAE: Musculoskeletal and connective tissue disorders [1] | Subjects experiencing at least one TEAE: Neck pain [1] | Subjects experiencing at least one TEAE: Pain in extremity [1] | Subjects experiencing at least one TEAE: Sciatica, back pain [1] | Subjects experiencing at least one TEAE: Skin abrasion [1] | Subjects experiencing at least one TEAE: Upper abdominal pain [1] | Subjects experiencing at least one TEAE: Abdominal pain [2] | Subjects experiencing at least one TEAE: Arthralgia [2] | Subjects experiencing at least one TEAE: Back pain [2] | Subjects experiencing at least one TEAE: Diarrhea [2] | Subjects experiencing at least one TEAE: Flank pain [2] | Subjects experiencing at least one TEAE: Headache [2] | Subjects experiencing at least one TEAE: Injury, poisoning, and procedural complications [2] | Subjects experiencing at least one TEAE: Musculoskeletal and connective tissue disorders [2] | Subjects experiencing at least one TEAE: Neck pain [2] | Subjects experiencing at least one TEAE: Nervous system disorders [2] | Subjects experiencing at least one TEAE: Pain in extremity [2] | Subjects experiencing at least one TEAE: Sciatica, back pain [2] | Subjects experiencing at least one TEAE: Skin abrasion [2] | Subjects experiencing at least one TEAE: Upper abdominal pain [2] | Subjects experiencing at least one TEAE: Vomiting [2] | Subjects experiencing at least one TEAE: Abdominal pain [3] | Subjects experiencing at least one TEAE: Arthralgia [3] | Subjects experiencing at least one TEAE: Back pain [3] | Subjects experiencing at least one TEAE: Diarrhea [3] | Subjects experiencing at least one TEAE: Flank pain [3] | Subjects experiencing at least one TEAE: Injury, poisoning, and procedural complications [3] | Subjects experiencing at least one TEAE: Musculoskeletal and connective tissue disorders [3] | Subjects experiencing at least one TEAE: Nausea [3] | Subjects experiencing at least one TEAE: Neck pain [3] | Subjects experiencing at least one TEAE: Pain in extremity [3] | Subjects experiencing at least one TEAE: Sciatica, back pain [3] | Subjects experiencing at least one TEAE: Skin abrasion [3] | Subjects experiencing at least one TEAE: Vomiting [3] | Subjects experiencing at least one TEAE: Abdominal pain [4] | Subjects experiencing at least one TEAE: Arthralgia [4] | Subjects experiencing at least one TEAE: Back pain [4] | Subjects experiencing at least one TEAE: Diarrhea [4] | Subjects experiencing at least one TEAE: Flank pain [4] | Subjects experiencing at least one TEAE: Headache [4] | Subjects experiencing at least one TEAE: Injury, poisoning, and procedural complications [4] | Subjects experiencing at least one TEAE: Musculoskeletal and connective tissue disorders [4] | Subjects experiencing at least one TEAE: Nausea [4] | Subjects experiencing at least one TEAE: Neck pain [4] | Subjects experiencing at least one TEAE: Nervous system disorders [4] | Subjects experiencing at least one TEAE: Pain in extremity [4] | Subjects experiencing at least one TEAE: Sciatica, back pain [4] | Subjects experiencing at least one TEAE: Skin abrasion [4] | Subjects experiencing at least one TEAE: Vomiting [4] | Subjects experiencing at least one TEAE: Abdominal pain [5] | Subjects experiencing at least one TEAE: Back pain [5] | Subjects experiencing at least one TEAE: Diarrhea [5]
6 (100.0) No. (%): Subjects experiencing at least one TEAE: Total [1] | Subjects experiencing at least one TEAE: Total [3]
4 (66.7) No. (%): Subjects experiencing at least one TEAE: Vomiting [1]
3 (50.0) No. (%): Subjects experiencing at least one TEAE: Nausea [1] | Subjects experiencing at least one TEAE: Total [4]
1 (16.7) No. (%): Subjects experiencing at least one TEAE: Diarrhea [1] | Subjects experiencing at least one TEAE: Gastrointestinal disorders [2] | Subjects experiencing at least one TEAE: Nausea [2] | Subjects experiencing at least one TEAE: Total [2] | Subjects experiencing at least one TEAE: Gastrointestinal disorders [4] | Subjects experiencing at least one TEAE: Upper abdominal pain [4] | Subjects experiencing at least one TEAE: Arthralgia [5]
2 (33.3) No. (%): Subjects experiencing at least one TEAE: Gastrointestinal disorders [3] | Subjects experiencing at least one TEAE: Upper abdominal pain [3]
5 (83.3) No. (%): Subjects experiencing at least one TEAE: Gastrointestinal disorders [1] | Subjects experiencing at least one TEAE: Headache [1] | Subjects experiencing at least one TEAE: Nervous system disorders [1] | Subjects experiencing at least one TEAE: Headache [3] | Subjects experiencing at least one TEAE: Nervous system disorders [3]
